Reference: paper PMC9343874, “Comparative Pharmacokinetics of Cinobufacini Capsule and Injection by UPLC-MS/MS” (Frontiers in Pharmacology, 2022)
Where two headings read alike, the source gives them in different places.

Columns and labels:
[1] = Stability of analytes in rat plasma QC samples under storage conditions; assay type: physicochemical; conditions: n = 6; for Stability during 24 h at 4°C, RE: post-treatment storage in autosampler; for −80°C for 30 days, RE / Three freeze–thaw cycles, RE: rat plasma; for −80°C for 30 days, RE: long-term; for Three freeze–thaw cycles, RE: −80°C to room temperature
Outline: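 QC samples at low, medium and high levels (n=6) were tested after 24 h in the autosampler at 4 °C, after three freeze–thaw cycles from −80 °C to room temperature, and after 30 days at −80 °C. Concentrations were read from daily calibration curves. Stability was accepted when RE and RSD were within ±15% of nominal.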

[2] = Pharmacokinetic study in rats after oral administration of cinobufacini capsule (UPLC-MS/MS of plasma); assay type: in vivo, rat; conditions: for AUC(0-inf) / AUC(0-t) / Cmax / Tmax / CL/F / MRT last / MRT inf / half-life / Vd/F: male, Sprague-Dawley, in vivo, rat plasma, mean ± SD, n = 6; for CL/F: read-out: CLz/F (converted); for MRT last: read-out: MRT0-t; for MRT inf: read-out: MRT0-∞; for half-life: read-out: T1/2z (converted); for Vd/F: read-out: Vz/F
Outline: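 Male SD rats (200–220 g), fasted 12 h, six per group; cinobufacini capsule given orally at three doses or injection intravenously. Retro-orbital plasma sampled 0.05–10 h, extracted with ethyl acetate plus internal standard, quantified by UPLC-MS/MS (ESI+, MRM); parameters calculated by non-compartmental-style software as mean ± SD.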

[3] = Pharmacokinetic study in rats after intravenous administration of cinobufacini injection (UPLC-MS/MS of plasma); assay type: in vivo, rat; conditions: for concentrations in most rat plasma samples relative to LLOQ: after intravenous administration of cinobufacini injection, pharmacokinetic parameters could not be calculated; for detection in rat plasma: cinobufacini injection group, intravenous
Method: Male Sprague–Dawley rats (weighing 200–220 g) of SPF grade were offered by Sippr/BK laboratory Animal, Corp., Ltd. (Shanghai, China) and fed in the Laboratory Animal Center of the Shanghai University of Traditional Chinese Medicine. All the rats were kept under environmentally controlled conditions with constant temperature (22–24°C) and humidity (60–65%). The animal experiment program in the present research was approved by the Animal Committee of the Shanghai University of Traditional Chinese Medicine (PZSHUTCM210618012).
An Agilent 1290 liquid chromatographic system includes a G4220A quaternary pump, a G1326C column incubator, a G4226A automatic sampler, and a G1330B degasser. The column temperature was set to 35°C. A measure of 5 µL of samples were separated in an Agilent SB-C18 column (2.1 mm ×50 mm, 1.8 μm) and eluted at 0.3 ml/min, followed by gradient elution with water (0.1% V/V formic acid) (A) and acetonitrile (B) (0–1 min, 20%–20% B; 1–3.5 min, 20%–80% B; 4–4.1 min, 80%-20% B; 4.1–6 min, 20% B). The total run time was 6 minutes.
An Agilent 1290 Infinity series UPLC system was combined with an Agilent 6460 series triple quadrupole mass spectrometer (Agilent Technologies, Santa Clara, CA, United States) to quantify all 13 analytes in an ESI-positive ionization mode. Quantitative analysis was performed in an MRM mode. The mass spectrum conditions were as follows: capillary voltage, 4000V; drying gas (N2), gas flow rate: 10 L/min; sprayer, 30 psi; gas temperature 350°C; The delta EMV (+) 200 V; collision gas (N2); dwell time, 25 ms. Agilent’s MassHunter Workstation software was used for data collection, peak area calculation, and quantitative analysis.
A measure of 50 µL of the plasma sample was mixed with 10 µL of the internal standard solution (345 ng/ml) in a 1.5-ml centrifuge tube and vortexed for 5 min. The samples were extracted by 500 µL of ethyl acetate for 5 min and centrifuged at 4°C for 10 min (18000 rpm). All the supernatants were collected into another 1.5-ml centrifuge tube, dried under a gentle stream of nitrogen at 37°C, and then added with 50 µL of 80% methanol for resolution. The resolution samples were centrifuged at 4°C for 10 min (18000 rpm), and 5 µL supernatant was extracted and injected for analysis.
Twenty-four male Sprague–Dawley rats (weigh 200–220 g) were divided into four groups with six rats in each group randomly, including three capsule groups at three different doses and one injection group. In the instructions for cinobufacini capsule and injection, the clinical dosage for adults is 2 g per 70 kg orally and 20 ml per 70 kg intravenously, converting to rat doses of 180 mg/kg and 1.8 ml/kg, respectively.
In the pre-experiments, we compared cinobufacini capsule of 180 mg/kg (one-time clinical dose) and 900 mg/kg (five times of clinical dose) and Cinobufacini injection of 1.8 ml/kg, but concentrations of some compounds in plasma were too low and difficult to be quantified. […] The experimental rats were led to fast the night and were free to get access to water for 12 h before the pharmacokinetic study. After administration, blood samples (approximately 150 μL) of rats were collected via retro-orbital sinus into heparinized centrifuge tubes at 0.05, 0.083, 0.25, 0.5, 0.75, 1, 2, 4, 6, 8, and 10 h. After centrifugation at 5,000 rpm for 10 min, the plasma was transferred to 1.5-ml polypropylene tubes and stored at −80°C until UPLC-MS/MS analysis.
GraphPad Prism software (version 8.0.2) was used to draw the mean plasma concentration–time curves of all analytes. The pharmacokinetic parameters were calculated by DAS 3.2.8 software. Meanwhile, the pharmacokinetic data on rats were presented as mean ± standard deviation (SD). Differences of pharmacokinetic parameters between groups were analyzed by the t-test using SPSS software (version 26.0). Differences were considered significant statistically when the p-values were <0.05 and very significant statistically when the p-values were <0.01.

[4] = high QC level (249.58–250.28 ng/ml)
[5] = medium QC level (49.92–50.06 ng/ml)
[6] = oral cinobufacini capsule 0.9 g/kg (low)
[7] = oral cinobufacini capsule 1.8 g/kg (medium)
[8] = oral cinobufacini capsule 3.6 g/kg (high)

| SMILES | Stability during 24 h at 4°C, RE [1, 4] | Stability during 24 h at 4°C, RE ([1]; low QC level (4.99–5.00 ng/ml)) | Stability during 24 h at 4°C, RE [1, 5] | −80°C for 30 days, RE [1, 4] | −80°C for 30 days, RE ([1]; low QC level (4.99–5.00 ng/ml)) | −80°C for 30 days, RE [1, 5] | Three freeze–thaw cycles, RE [1, 4] | Three freeze–thaw cycles, RE ([1]; low QC level (4.99–5.00 ng/ml)) | Three freeze–thaw cycles, RE [1, 5] | AUC(0-inf) [2, 6] | AUC(0-t) [2, 6] | Cmax [2, 6] | Tmax [2, 6] | CL/F [2, 6] | MRT last [2, 6] | MRT inf [2, 6] | half-life [2, 6] | Vd/F [2, 6] | AUC(0-inf) [2, 7] | AUC(0-t) [2, 7] | also measured |
| --- | --- | --- | --- | --- | --- | --- | --- | --- | --- | --- | --- | --- | --- | --- | --- | --- | --- | --- | --- | --- | --- |
| C[C@]12CC[C@H](O)C[C@H]1CC[C@@H]1[C@@H]2CC[C@]2(C)[C@@H](c3ccc(=O)oc3)CC[C@]12O [BF, bufalin] | −8.5% | 3.3% | −8.6% | 1.4% | 8.7% | −12.6% | 0.8% | −7.7% | −10.1% | 143 ± 79.4 ng·h/mL | 139 ± 71.9 ng·h/mL | 74.7 ± 30.7 ng/mL | 0.25 h | 26.2 mL/min/kg | 2.04 ± 0.62 h | 2.19 ± 0.9 h | 1.09 ± 0.91 h | 1.81 ± 0.56 L/kg | 317 ± 134 ng·h/mL | 310 ± 131 ng·h/mL | Cmax [2, 7]: 189 ± 43.2 ng/mL; Tmax [2, 7]: 0.43 ± 0.12 h; CL/F [2, 7]: 21.5 mL/min/kg; MRT last [2, 7]: 1.45 ± 0.24 h; MRT inf [2, 7]: 1.59 ± 0.49 h; half-life [2, 7]: 1.2 ± 0.62 h; Vd/F [2, 7]: 2.15 ± 1.21 L/kg; AUC(0-inf) [2, 8]: 461 ± 90.4 ng·h/mL; AUC(0-t) [2, 8]: 457 ± 91.2 ng·h/mL; Cmax [2, 8]: 322 ± 55.5 ng/mL; Tmax [2, 8]: 0.46 ± 0.17 h; CL/F [2, 8]: 27.3 mL/min/kg; MRT last [2, 8]: 1.39 ± 0.43 h; MRT inf [2, 8]: 1.49 ± 0.55 h; half-life [2, 8]: 1.27 ± 0.72 h; Vd/F [2, 8]: 3.02 ± 2.01 L/kg; time to reach maximum plasma concentration (Cmax) ([2]; rats, after gavage administration of cinobufacini capsule): ≤ 60 min; concentrations in most rat plasma samples relative to LLOQ [3]: far below the LLOQs; detection in rat plasma [3]: could be detected |
| C[C@]12CC[C@H](O)C[C@H]1CC[C@@H]1[C@@H]2C(=O)[C@@H](O)[C@]2(C)[C@@H](c3ccc(=O)oc3)CC[C@]12O [PBG, pseudobufarenogin] | 10.2% | 6.6% | 12.0% | 4.7% | 8.3% | 7.5% | 7.7% | 4.4% | 13.3% | 13.8 ± 5.4 ng·h/mL | 13.3 ± 4.42 ng·h/mL | 9.3 ± 3.04 ng/mL | 0.25 h | 33.5 mL/min/kg | 2.4 ± 0.63 h | 2.76 ± 1 h | 1.52 ± 0.98 h | 7.15 ± 2.16 L/kg | 28.6 ± 6.25 ng·h/mL | 28.4 ± 6.26 ng·h/mL | Cmax [2, 7]: 24.5 ± 7.32 ng/mL; Tmax [2, 7]: 0.4 ± 0.22 h; CL/F [2, 7]: 30.8 mL/min/kg; MRT last [2, 7]: 1.49 ± 0.08 h; MRT inf [2, 7]: 1.54 ± 0.11 h; half-life [2, 7]: 1.03 ± 0.61 h; Vd/F [2, 7]: 2.65 ± 1.51 L/kg; AUC(0-inf) [2, 8]: 47.7 ± 9.78 ng·h/mL; AUC(0-t) [2, 8]: 47.3 ± 9.4 ng·h/mL; Cmax [2, 8]: 42.8 ± 10.2 ng/mL; Tmax [2, 8]: 0.32 ± 0.12 h; CL/F [2, 8]: 36.7 mL/min/kg; MRT last [2, 8]: 1.47 ± 0.39 h; MRT inf [2, 8]: 1.57 ± 0.39 h; half-life [2, 8]: 1.96 ± 0.67 h; Vd/F [2, 8]: 5.65 ± 1.61 L/kg; concentrations in most rat plasma samples relative to LLOQ [3]: far below the LLOQs; detection in rat plasma [3]: could be detected |
